Calls of active or inactive are those of the source.
Columns and labels:
Nonstructural protein 1 = Nonstructural protein 1 (Influenza A virus, UniProt Q194T2); type: functional, Influenza A virus (A/California/07/2009(H1N1))
[1] = biological target: T1, High affinity choline transporter 1 (Homo sapiens, UniProt Q9GZV3); assay: human choline transporter blockers, potency – cell-based, 5-point CRC, membrane potential dye, dose response (AID 504840); type: functional
T1 sequence (Q9GZV3 whole entry): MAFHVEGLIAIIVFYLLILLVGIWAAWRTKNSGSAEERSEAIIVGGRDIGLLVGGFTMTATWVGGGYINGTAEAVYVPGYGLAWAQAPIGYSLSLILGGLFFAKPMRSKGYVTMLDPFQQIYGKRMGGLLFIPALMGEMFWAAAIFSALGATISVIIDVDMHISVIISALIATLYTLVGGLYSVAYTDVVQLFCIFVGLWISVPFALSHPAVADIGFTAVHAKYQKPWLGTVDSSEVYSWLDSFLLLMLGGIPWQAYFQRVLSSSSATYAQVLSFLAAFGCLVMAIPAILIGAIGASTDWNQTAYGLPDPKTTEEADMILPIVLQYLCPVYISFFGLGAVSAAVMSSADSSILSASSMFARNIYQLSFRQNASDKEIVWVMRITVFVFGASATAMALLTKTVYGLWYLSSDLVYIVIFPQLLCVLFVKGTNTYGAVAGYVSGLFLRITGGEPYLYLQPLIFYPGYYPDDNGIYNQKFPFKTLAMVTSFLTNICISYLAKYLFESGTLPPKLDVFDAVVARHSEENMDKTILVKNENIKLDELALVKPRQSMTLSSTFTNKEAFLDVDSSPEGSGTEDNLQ

Fatty acid synthase [2] = biological target: T2, Fatty acid synthase (Homo sapiens, UniProt P49327); assay: inhibition of human FAS-TE enzyme activity – biochemical, endpoint fluorescence intensity, uHTS hits, dose response (AID 624327); type: functional;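 also: fluorescence from hydrolysis of an O-methyl fluorescein acyl ester substrate by the enzyme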
T2 sequence (P49327 whole entry): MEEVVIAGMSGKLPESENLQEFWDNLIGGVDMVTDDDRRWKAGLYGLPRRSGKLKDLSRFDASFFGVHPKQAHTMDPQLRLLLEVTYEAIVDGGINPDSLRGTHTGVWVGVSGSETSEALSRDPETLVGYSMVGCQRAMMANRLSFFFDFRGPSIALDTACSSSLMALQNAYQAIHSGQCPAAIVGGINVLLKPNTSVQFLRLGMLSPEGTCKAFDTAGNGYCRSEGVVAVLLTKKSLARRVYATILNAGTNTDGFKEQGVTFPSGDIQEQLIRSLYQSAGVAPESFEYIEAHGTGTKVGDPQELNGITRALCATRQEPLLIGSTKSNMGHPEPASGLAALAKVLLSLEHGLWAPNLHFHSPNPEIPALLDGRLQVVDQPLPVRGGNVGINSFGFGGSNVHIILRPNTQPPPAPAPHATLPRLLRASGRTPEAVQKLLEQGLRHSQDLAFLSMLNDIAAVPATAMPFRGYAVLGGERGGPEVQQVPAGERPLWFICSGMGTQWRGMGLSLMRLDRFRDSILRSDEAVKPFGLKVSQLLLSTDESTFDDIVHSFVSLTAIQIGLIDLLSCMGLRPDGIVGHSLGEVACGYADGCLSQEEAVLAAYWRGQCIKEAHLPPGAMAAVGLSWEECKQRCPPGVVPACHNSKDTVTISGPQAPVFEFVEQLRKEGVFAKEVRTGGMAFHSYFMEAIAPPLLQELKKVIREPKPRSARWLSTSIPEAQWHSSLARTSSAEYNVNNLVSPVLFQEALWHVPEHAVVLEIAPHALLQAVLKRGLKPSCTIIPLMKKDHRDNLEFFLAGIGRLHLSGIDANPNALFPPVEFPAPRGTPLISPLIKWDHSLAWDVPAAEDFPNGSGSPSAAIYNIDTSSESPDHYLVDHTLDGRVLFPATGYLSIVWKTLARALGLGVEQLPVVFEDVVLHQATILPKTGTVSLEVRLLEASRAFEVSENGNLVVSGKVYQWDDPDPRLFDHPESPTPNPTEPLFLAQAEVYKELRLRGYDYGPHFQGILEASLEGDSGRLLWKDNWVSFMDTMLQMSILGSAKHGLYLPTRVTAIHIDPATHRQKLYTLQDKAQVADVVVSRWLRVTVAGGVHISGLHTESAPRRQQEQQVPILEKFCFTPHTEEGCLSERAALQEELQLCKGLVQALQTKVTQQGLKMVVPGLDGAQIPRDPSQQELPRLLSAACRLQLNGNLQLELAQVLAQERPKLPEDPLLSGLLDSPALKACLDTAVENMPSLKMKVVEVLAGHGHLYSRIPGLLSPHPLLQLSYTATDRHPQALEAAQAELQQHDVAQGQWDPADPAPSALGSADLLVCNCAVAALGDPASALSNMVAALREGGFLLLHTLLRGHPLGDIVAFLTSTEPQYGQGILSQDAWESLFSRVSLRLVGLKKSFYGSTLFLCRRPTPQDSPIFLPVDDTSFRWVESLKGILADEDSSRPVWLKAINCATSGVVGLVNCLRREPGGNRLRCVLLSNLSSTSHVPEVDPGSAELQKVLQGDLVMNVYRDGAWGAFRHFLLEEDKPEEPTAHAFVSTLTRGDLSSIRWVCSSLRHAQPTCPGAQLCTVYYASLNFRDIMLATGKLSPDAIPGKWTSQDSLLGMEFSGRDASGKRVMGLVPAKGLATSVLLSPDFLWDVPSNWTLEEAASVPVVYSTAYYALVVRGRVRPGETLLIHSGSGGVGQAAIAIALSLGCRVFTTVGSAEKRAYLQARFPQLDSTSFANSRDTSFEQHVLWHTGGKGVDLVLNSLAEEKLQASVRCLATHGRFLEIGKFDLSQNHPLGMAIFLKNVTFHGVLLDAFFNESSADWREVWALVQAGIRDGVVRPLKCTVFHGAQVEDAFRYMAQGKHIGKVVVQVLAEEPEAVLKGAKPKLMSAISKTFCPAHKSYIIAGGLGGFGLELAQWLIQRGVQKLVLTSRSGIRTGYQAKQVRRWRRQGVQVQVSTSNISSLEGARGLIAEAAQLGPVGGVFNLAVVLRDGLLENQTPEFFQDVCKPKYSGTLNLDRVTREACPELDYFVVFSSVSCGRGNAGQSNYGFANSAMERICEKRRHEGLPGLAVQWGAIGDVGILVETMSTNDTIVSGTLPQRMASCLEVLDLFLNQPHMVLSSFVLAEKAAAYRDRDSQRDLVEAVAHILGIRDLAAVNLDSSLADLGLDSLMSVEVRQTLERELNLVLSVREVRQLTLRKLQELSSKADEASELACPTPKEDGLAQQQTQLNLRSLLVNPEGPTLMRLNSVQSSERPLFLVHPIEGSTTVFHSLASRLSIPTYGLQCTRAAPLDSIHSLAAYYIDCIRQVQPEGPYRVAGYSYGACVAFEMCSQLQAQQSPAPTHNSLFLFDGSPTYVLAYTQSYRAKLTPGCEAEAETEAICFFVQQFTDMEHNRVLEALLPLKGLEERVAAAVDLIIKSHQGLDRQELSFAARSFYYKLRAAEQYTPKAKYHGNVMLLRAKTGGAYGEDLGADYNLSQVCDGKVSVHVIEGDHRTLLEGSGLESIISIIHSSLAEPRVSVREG

Fatty acid synthase [3] = biological target: T2, Fatty acid synthase; assay: inhibition of human FAS-TE enzyme activity – biochemical, kinetic fluorescence intensity, dose response (AID 624326); type: functional;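 also: rate of fluorescence rise from hydrolysis of a fluorogenic O-methyl fluorescein ester substrate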
[4] = NIH-3T3 fibroblast cytotoxicity, dose response, cytotoxicity control, cell-based, fluorescence, Alamar Blue, secondary assay (AID 2327); type: functional;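 also: NIH-3T3 mouse fibroblasts cultured with fluconazole at 8 µg/mL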
[5] = fluconazole-exposed Candida albicans growth modulators – fluorescence, retest, confirmation (AID 2467); type: functional, cell-based
[6] = biological target: T3, Calpain-2 catalytic subunit (Sus scrofa, UniProt P43367); assay: m-calpain protease blockers, concentration series – biochemical, fluorogenic peptide substrate, dose response (AID 1420); type: functional
T3 sequence (P43367 whole entry): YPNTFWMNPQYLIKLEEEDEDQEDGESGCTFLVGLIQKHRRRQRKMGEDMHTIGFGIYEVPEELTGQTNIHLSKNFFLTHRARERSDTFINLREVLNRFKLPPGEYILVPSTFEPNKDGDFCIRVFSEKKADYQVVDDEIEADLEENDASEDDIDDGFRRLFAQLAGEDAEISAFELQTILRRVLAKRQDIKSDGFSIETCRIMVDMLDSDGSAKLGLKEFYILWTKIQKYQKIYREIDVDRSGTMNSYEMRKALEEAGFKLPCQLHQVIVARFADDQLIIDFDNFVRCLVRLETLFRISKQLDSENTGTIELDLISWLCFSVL

[7] = biological target: T4, Polyadenylate-binding protein 1 (Homo sapiens, UniProt P11940); assay: MLLE binding blockers, Cy5 peptide tracer – biochemical, fluorescence polarization, Cy5-PAM2 peptide, secondary, miRNA deadenylation inhibitor project, dose response (AID 602260); type: functional; settings: read-out: IC50_Mean
T4 sequence (P11940 whole entry, the tested form may be a part): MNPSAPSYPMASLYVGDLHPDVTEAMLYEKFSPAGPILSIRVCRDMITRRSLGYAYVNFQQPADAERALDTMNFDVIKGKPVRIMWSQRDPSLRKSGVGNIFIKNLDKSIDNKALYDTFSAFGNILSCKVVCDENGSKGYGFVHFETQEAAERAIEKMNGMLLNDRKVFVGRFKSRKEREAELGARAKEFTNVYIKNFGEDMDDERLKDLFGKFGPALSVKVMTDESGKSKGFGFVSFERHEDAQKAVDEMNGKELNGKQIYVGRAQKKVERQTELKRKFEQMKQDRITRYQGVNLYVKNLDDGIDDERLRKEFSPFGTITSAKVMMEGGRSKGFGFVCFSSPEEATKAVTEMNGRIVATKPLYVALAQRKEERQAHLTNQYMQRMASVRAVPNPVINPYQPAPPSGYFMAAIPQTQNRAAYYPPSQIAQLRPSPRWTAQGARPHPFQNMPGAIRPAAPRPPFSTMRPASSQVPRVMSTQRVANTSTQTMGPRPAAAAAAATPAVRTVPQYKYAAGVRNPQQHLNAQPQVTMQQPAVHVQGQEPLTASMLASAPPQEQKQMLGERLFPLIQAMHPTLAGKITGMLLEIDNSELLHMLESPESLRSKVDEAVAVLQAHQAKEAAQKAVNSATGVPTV

[8] = biological target: T4, Polyadenylate-binding protein 1; assay: MLLE domain peptide-binding blockers, IC50 – biochemical, fluorescence polarization, FITC-PAM2 peptide, dose response (AID 602259); type: functional; settings: read-out: IC50_Mean

Sequence of Nonstructural protein 1 (Q194T2 whole entry): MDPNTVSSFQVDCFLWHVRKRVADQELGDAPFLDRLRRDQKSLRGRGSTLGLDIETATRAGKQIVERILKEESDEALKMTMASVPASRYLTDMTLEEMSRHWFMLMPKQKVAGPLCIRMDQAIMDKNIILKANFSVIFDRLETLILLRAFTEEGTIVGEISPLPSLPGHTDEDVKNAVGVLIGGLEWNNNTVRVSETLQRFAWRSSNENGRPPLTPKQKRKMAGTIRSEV

Structure (SMILES)	IC50 (Fatty acid synthase [2])	IC50 (Fatty acid synthase [3])	also measured
COc1ccc(C2CC(=O)Oc3c(C(CCN4CCCCC4)c4ccc(N(C)C)cc4)c(OC)cc(OC)c32)cc1 (stereo unspecified)			IC50 (Nonstructural protein 1): 18 µM (active); IC50 [1]: 14.5 µM (active)
O=[N+]([O-])c1ccc(S(=O)(=O)Nc2nnc(C3CCCCC3)s2)cc1	7.87 µM (active)	7.54 µM (active)	
CC(C)N1C(=O)S/C(=C\c2ccc(-c3ccc(Cl)c(C(=O)O)c3)o2)C1=O	5.26 µM (active)	5.51 µM (active)	
CC(C)(C)NC(=O)NC(=O)COC(=O)Cc1ccc(Cl)cc1Cl	9.97 µM (active)	9.75 µM (active)	
O=C1c2ccccc2C(=O)c2c1cccc2N1CCCC1			EC50 [4]: 55.6 µM (active); EC50 [5]: > 38 µM (not active); IC50 [6]: 14.6 µM (not active); IC50 (Nonstructural protein 1): 7.3 µM (active)
Cc1ccc(S(=O)(=O)Nc2nc3ccccc3nc2Nc2cccc(S(=O)(=O)N3CCCC3)c2)cc1			IC50 [7]: > 66 µM (inactive); IC50 [8]: > 66 µM (inactive)
Cn1c(=O)c([N+](=O)[O-])c(N2CCN(Cc3ccc4c(c3)OCO4)CC2)c2ccccc21	2.71 µM (active)	4.73 µM (active)	
O=C1OC(c2ccccc2)=NC12CC2c1ccc(Cl)cc1 (stereo unspecified)	0.293 µM (active)	0.238 µM (active)	
Cc1nc(CCNC(=O)CC2C(=O)NCCN2Cc2ccccc2)sc1C (stereo unspecified)			IC50 [7]: > 66 µM (inactive); IC50 [8]: > 66 µM (inactive)
CC(C)(C)OC(=O)NCCCC[C@H](NC(=O)c1[nH]cnc1C(=O)Nc1ccccc1)C(=O)OC(C)(C)C	2.63 µM (active)	3.01 µM (active)	
CCC(CC)COC(=O)C1=C(C)NC(=O)NC1c1ccc([N+](=O)[O-])cc1 (stereo unspecified)	4.35 µM (active)	5.94 µM (active)	
CN1CCN(NC(=O)CN2C(=O)S/C(=C\c3c(Cl)cccc3Cl)C2=O)CC1			IC50 [7]: > 66 µM (inactive); IC50 [8]: > 66 µM (inactive)

Reference: ChEMBL document CHEMBL1201862, “PubChem BioAssay data set” (2004)
